Measured values reported in patent US12194081B2, “ARGINASE1 polypeptides” (IO BIOTECH APS, priority 2018, dated 2025).

System: PBMCs from cancer patients and healthy donors
Assay: in vitro IFNγ ELISPOT of PBMCs after 7 days with peptide and IL-2
Format: cell-based, human
Settings: for cancer patients showing responses in IFNγ ELISPOT: out of 16 cancer patients (8 melanoma, 6 multiple myeloma, 1 breast cancer, 1 renal cell carcinoma); for cancer patients showing responses in IFNγ ELISPOT / healthy donors showing responses in IFNγ ELISPOT: strong responses counted for ArgLong2, FIG. 2; for healthy donors showing responses in IFNγ ELISPOT: out of 19 healthy donors; for responses in IFNγ ELISPOT (in words): PBMCs from 6 healthy donors, peptide and low dose IL-2 for 1 week, FIG. 1
Protocol: PBMCs from healthy donors were isolated using density gradient separation over LymphoprepTM (STEMCELL Technologies) and cryopreserved at -150° C. in FBS supplemented with 10% DMSO. PBMCs from cancer patients were isolated from blood sample a minimum of four weeks after the termination of any anti-cancer therapy. The protocol was approved by the Scientific Ethics Committee for The Capital Region of Denmark and conducted in accordance with the provisions of the Declaration of Helsinki. Written informed consent from the patients was obtained before study entry. […] The sequences of the peptides used in these experiments are shown in full below in alignment with each other, and are also set out in the section entitled “Sequences”). Peptides are described by SEQ ID NO, by name, or by reference to the start and end positions of each peptide sequence within the full length sequence of Arginase 1. Each may be used interchangeably. For example, the peptide of SEQ ID NO: 1 may alternatively be referred to by the name ArgLong2, or may alternatively be referred to as […]-206 (given a start position of 169 and end position of 206). The intended reference in each case will be clear from the context. For in vitro ELISPOT, PBMCs from cancer patients and healthy donors were pulsed with 20 μM of Arginase 1-derived peptides and 120 U/ml IL-2 in 24-well plates for 7 days before being used in an ELISPOT assay. The cells were placed in 96-well nitrocellulose ELISPOT plates (MultiScreen MAIP […]; Millipore) pre-coated with IFNγ capture antibody (Mabtech). Arginase peptides added to a final concentration of 5 μM and plates incubated at 37° C. for 14-16 hours. After the incubation the cells were washed off and secondary biotinylated Ab (Mabtech, cat. 3420-6-1000) was added for 2 hours at room temperature. Unbound secondary antibody was washed off and streptavidin conjugated alkaline phosphatase (AP) (Mabtech, cat. 3310-10) was added for 1 hour at room temperature. Unbound conjugated enzyme was washed off and the assay was developed by adding BCIP/NBT substrate (Mabtech, cat. 3650-10). Developed ELISPOT plates were analyzed on CTL ImmunoSpot S6 Ultimate-V analyzer using Immunospot software v5.1. Responses were reported as the difference between average numbers of spots in wells stimulated with Arginase 1 and wells without added peptide.

Sequence	cancer patients showing responses in IFNγ ELISPOT	healthy donors showing responses in IFNγ ELISPOT	responses in IFNγ ELISPOT (in words)
AKDIVYIGLRDVDPGEHYIL (Peptide fragment of human Arginase 1 (Arg1-18)) [Arg171-190, previously described 20-mer Arginase 1 peptide (WO2018065563), reference compound]	3 cancer patients	3 healthy donors	
DVDPGEHYILKTLGIKYFSM (Peptide fragment of human Arginase 1 (Arg1-19)) [Arg181-200, previously described 20-mer Arginase 1 peptide (WO2018065563), reference compound]	6 cancer patients	4 healthy donors	
ISAKDIVYIGLRDVDPGEHYILKTLGIKYFSM (Peptide fragment of human Arginase 1 (ArgLong3)) [32-mer, positions 169-200 of full length human Arginase 1]			low or no responses
ISAKDIVYIGLRDVDPGEHYILKTLGIKYFSMTEVDRLGIGK (Peptide fragment of human Arginase 1 (ArgLong)) [42-mer, positions 169-210 of full length human Arginase 1]			low or no responses
KTLGIKYFSMTEVDRLGIGK (Peptide fragment of human Arginase 1 (Arg1-20)) [Arg191-210, previously described 20-mer Arginase 1 peptide (WO2018065563), reference compound]	3 cancer patients	7 healthy donors	
